Reference: ChEMBL document CHEMBL1201862, “PubChem BioAssay data set” (2004)
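Where inhibition never reached the appropriate level, the endpoint shown equals the highest concentration tested. Otherwise, values were interpolated linearly from a five-concentration, 48-hour dose response in 96-well plates. GI50: concentration for 50% inhibition of growth.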 Activity calls are given as the source filed them. Cut-off read from the data, not from the text of the source: active = GI50 up to about 1.1 µM and inactive = higher.

Columns and labels:
Assay in all cases: NCI tumour cell line growth inhibition, 48 h
SNB-19 = system: SNB-19
RPMI-8226 = system: RPMI-8226
HOP-62 = system: HOP-62
U-251 = system: U-251
EKVX = system: EKVX
OVCAR-3 = system: OVCAR-3
MDA-MB-435 = system: MDA-MB-435
NCI-H460 = system: NCI-H460
HOP-92 = system: HOP-92
HCT-116 = system: HCT-116
BT-549 = system: BT-549
COLO 205 = system: COLO 205
SN12C = system: SN12C
SK-MEL-28 = system: SK-MEL-28
OVCAR-4 = system: OVCAR-4
IGROV-1 = system: IGROV-1
KM12 = system: KM12
HL-60 = system: HL-60
Hs-578T = system: Hs-578T
MOLT-4 = system: MOLT-4
A549 = system: A549
K562 = system: K562
SK-OV-3 = system: SK-OV-3
UACC-62 = system: UACC-62
SF-539 = system: SF-539
MDA-MB-231 = system: MDA-MB-231
Malme-3M = system: Malme-3M
NCI-H226 = system: NCI-H226
MDA-N = system: MDA-N
RXF 393 = system: RXF 393
T47D = system: T47D
SF-268 = system: SF-268
TK-10 = system: TK-10
786-0 = system: 786-0
UO-31 = system: UO-31
CCRF-CEM = system: CCRF-CEM
ACHN = system: ACHN
SNB-75 = system: SNB-75
OVCAR-5 = system: OVCAR-5
LOX IMVI = system: LOX IMVI
HCC 2998 = system: HCC 2998
UACC-257 = system: UACC-257
A498 = system: A498
CAKI-1 = system: CAKI-1
SW-620 = system: SW-620
MCF7 = system: MCF7
SF-295 = system: SF-295
NCI-H23 = system: NCI-H23
OVCAR-8 = system: OVCAR-8
HCT-15 = system: HCT-15
PC-3 = system: PC-3
M14 = system: M14
SK-MEL-5 = system: SK-MEL-5
DU-145 = system: DU-145
NCI/ADR-RES = system: NCI/ADR-RES
SK-MEL-2 = system: SK-MEL-2
HT-29 = system: HT-29

Compound: CCCCCCSC[C@H](OC(C)=O)[C@@H](OC(C)=O)[C@@H](OC(C)=O)[C@@H](COC(C)=O)OC(C)=O
- GI50 (SNB-19): > 100 µM (inactive)
- GI50 (RPMI-8226): 13.3 µM (inactive)
- GI50 (HOP-62): > 100 µM (inactive)
- GI50 (U-251): > 100 µM (inactive)
- GI50 (EKVX): > 100 µM (inactive)
- GI50 (OVCAR-3): 80.9 µM (inactive)
- GI50 (MDA-MB-435): > 100 µM (inactive)
- GI50 (NCI-H460): > 100 µM (inactive)
- GI50 (HOP-92): > 100 µM (inactive)
- GI50 (HCT-116): 49.9 µM (inactive)
- GI50 (BT-549): > 100 µM (inactive)
- GI50 (COLO 205): 64.9 µM (inactive)
- GI50 (SN12C): > 100 µM (inactive)
- GI50 (SK-MEL-28): > 100 µM (inactive)
- GI50 (OVCAR-4): > 100 µM (inactive)
- GI50 (IGROV-1): 83.8 µM (inactive)
- GI50 (KM12): 41.9 µM (inactive)
- GI50 (HL-60): 33.6 µM (inactive)
- GI50 (Hs-578T): > 100 µM (inactive)
- GI50 (MOLT-4): 26.9 µM (inactive)
- GI50 (A549): 71.1 µM (inactive)
- GI50 (K562): 43.9 µM (inactive)
- GI50 (SK-OV-3): > 100 µM (inactive)
- GI50 (UACC-62): > 100 µM (inactive)
- GI50 (SF-539): > 100 µM (inactive)
- GI50 (MDA-MB-231): > 100 µM (inactive)
- GI50 (Malme-3M): > 100 µM (inactive)
- GI50 (NCI-H226): > 100 µM (inactive)
- GI50 (MDA-N): > 100 µM (inactive)
- GI50 (RXF 393): > 100 µM (inactive)
- GI50 (T47D): 38.6 µM (inactive)
- GI50 (SF-268): > 100 µM (inactive)
- GI50 (TK-10): > 100 µM (inactive)
- GI50 (786-0): > 100 µM (inactive)
- GI50 (UO-31): > 100 µM (inactive)
- GI50 (CCRF-CEM): 43.6 µM (inactive)
- GI50 (ACHN): > 100 µM (inactive)
- GI50 (SNB-75): > 100 µM (inactive)
- GI50 (OVCAR-5): > 100 µM (inactive)
- GI50 (LOX IMVI): > 100 µM (inactive)
- GI50 (HCC 2998): > 100 µM (inactive)
- GI50 (UACC-257): > 100 µM (inactive)
- GI50 (A498): > 100 µM (inactive)
- GI50 (CAKI-1): > 100 µM (inactive)
- GI50 (SW-620): > 100 µM (inactive)
- GI50 (MCF7): 85.5 µM (inactive)
- GI50 (SF-295): > 100 µM (inactive)
- GI50 (NCI-H23): > 100 µM (inactive)
- GI50 (OVCAR-8): > 100 µM (inactive)
- GI50 (HCT-15): 62.5 µM
- GI50 (PC-3): 27.7 µM (inactive)
- GI50 (M14): 89.7 µM (inactive)
- GI50 (SK-MEL-5): 23.4 µM (inactive)
- GI50 (DU-145): > 100 µM (inactive)
- GI50 (NCI/ADR-RES): > 100 µM (inactive)
- GI50 (SK-MEL-2): > 100 µM (inactive)
- GI50 (HT-29): > 100 µM (inactive)
